One series concerns A375 melanoma cell line. As to the kind of experiment: Antiproliferative activity, CellTiter-Glo, A375. It counts as cell-based. To be noted: Homo sapiens, A-375, A375, 72 h. How it is done:
Based on the previous preliminary tests, we sought to investigate the ability of synthesized compounds 5–15 and reference 1 in inhibiting the proliferation of BRAF^V600E mutant cancer cells. A first screening was conducted in A375 melanoma cell lines (Table 1, Figure S2). Encorafenib was employed for comparison.
(§1) The ability of compounds 5, 10, 11, 15–selected based on their chemical diversity–to inhibit cell proliferation was then tested both in A375 and in Colo205 cancer cell lines. […] P5B was obtained by joining the BRAF inhibitor BI 882370 to pomalidomide through a five PEG unit spacer (Figure S3). In compound P5B, the linker length was of 17 atoms, the same length of the spacer used to generate our compound 10. A375 and Colo205 cells were treated for 72 h with compounds 5, 10, 11, 15, and P5B, and the antiproliferative activity was measured by a luminescent ATP-based assay, which determines the number of viable cells based on their metabolic activity. […] However, P5B was more efficient in inhibiting tumor cell viability in comparison with the other selected compounds.
(§2) Cell viability was evaluated by means of CellTiter-Glo Luminescent Assay (Promega), which allows users to measure the ATP in the cell supernatant. The assay was performed according to manufacturer’s instructions. In brief, 4.10^3 A375 or Colo205 were seeded into 96-well plates and allowed to adhere at the wall overnight. Cells were treated for 72 h with BRAF inhibitor compounds. Then, 90 µL of the cell culture medium was transferred in a white 96-well plate, to which 10 µL of CellTiter-Glo was added before measurement of luminescence. Luminescence was measured by the SPARK M10 (Tecan, Männedorf, Switzerland) plate reader.
On the technique in general: ATP-based viability assays read luminescence as a measure of living cells.

Another series relates to Colo205 cells. As to the kind of experiment: Cell permeability in Colo205 cells. It counts as in vitro ADME. To be noted: Colo205 cells (Table S1).
The next series addresses T1, B-RAF (V600E) (Homo sapiens, UniProt P15056, V600E).
T1 construct: purchased BPS Bioscience
As to the kind of experiment: BRAF^V600E inhibition assay (B-RAF (V600E) Kinase Assay Kit, Kinase-Glo MAX). It counts as biochemical. To be noted: isolated BRAF^V600E, ATP 10 μM, 30 °C, 45 min; three experiments in duplicate; read-out: BRAF (V600E) Kinase Activity IC50 (nM ± SEM). As to the method: In a 96-well plate, the different inhibitor solutions in DMSO were mixed with Buffer, ATP (10 μM) and Raf substrate. […] After a 15 min delay to equilibrate plate temperature, 50 μL of Kinase-Glo Max was added in each well, and the luminescence was measured according to supplier’s instruction. The results, reported as IC50 ± S.E.M., were calculated with GrapPad Prism 7 and derive from three different experiments run in duplicate.
(In Kinase-Glo more light means more ATP remaining.)

Another series is described as follows: Stability in human serum. It counts as in vitro ADME. To be noted: male, 37 °C. As to the method: (§3) Stability of compounds was determined in RPMI medium and in human serum. DMSO stock solutions of compounds (10 mM) was added to RPMI (Sigma–Aldrich, Darmstadt, Germany) competed with 10% fetal bovine serum (FBS) plus 2 mM glutamine, penicillin (100 IU/mL), and streptomycin (100 μγ/mL; Sigma–Aldrich, Darmstadt, Germany) or to human serum (sterile-filtered from human male AB plasma, Sigma–Aldrich, Darmstadt, Germany), to obtain the 100 μM final concentration with 1% of DMSO. The resulting solutions were incubated at 37 °C for 48 h. At appropriate time intervals (0, 1, 5, 24 and 48 h), 300 µL of the reaction mixture was withdrawn and added to 300 µL of acetonitrile 0.1% TFA. The samples were vortexed, sonicated for 3 min and then centrifuged for 5 min at 2500× g. The clear supernatant was filtered through a PTFE 0.45 μm filter (VWR) and analyzed by RP-HPLC. Each experiment was independently repeated at least three times, and results are expressed as a percentage of unmodified compound over time. The half-life was determined by fitting the data with a one phase exponential decay equation (Graph Pad, Prism software vr. 5, GraphPad Software Inc., San Diego, CA, USA). […]
(§4) The column effluent was monitored at 226 and 300 nm, referenced against a 800 nm wavelength. […] Quantitation of compounds was obtained by calibration curves (linearity determined in a concentration range of 1–100 µM, r^2 > 0.99).

The nature of series [1]: Stability in RPMI cell medium. Format: in vitro ADME. To be noted: RPMI cell culture medium with 10% FBS, RPMI with 10% FBS, 37 °C. As to the method:
as §3, §4

The subject of series [2] is T2, BRAF^V600E.
T2 construct: endogenous in cells; host or cells: A375 and Colo205 cell lines
Kind of series: Western blot, BRAF^V600E degradation in A375. It counts as cell-based. To be noted: for BRAF^V600E degradation: A375, 24 h, 100–500 nM; for BRAF^V600E degradation at higher concentration: A375, up to 10 µM (Figure S4). How it is done: (§5) Finally, we investigated the capability of the most antiproliferative compounds in interfering with BRAF pathway, favoring target degradation. To this end, Western blot analysis was conducted 24 h after incubation with 10 and 11 in both A375 and Colo205 cell lines. […] This observation was consistent with their ability to inhibit BRAF^V600E.
(§6) To measure the capability of our compounds to interfere with BRAF pathway, pre-treated A375 and Colo205 cells were lysed. We then performed protein analysis through Western blot by using the following primary antibodies: anti-phospho ERK 1/2 (clone E10; dilution 1:1000; Cell Signaling Technology, Danvers, MA, USA) and anti-ERK (clone 137F5; dilution 1:1000; Cell Signaling Technology); anti-phospho MEK (clone S217/221; dilution 1:1000; Cell Signaling Technology); anti-MEK1,2 (clone 9122; dilution 1:1000; Cell Signaling Technology); anti-BRAF v600e (dilution 1:1000; Abcam, Cambridge, UK); and anti-total BRAF (dilution 1:1000; ThermoFisher, Waltham, MA, USA). Vinculin (clone E1E9B; dilution 1:1000; Cell Signaling Technology) was used as a loading control. The total protein amount was determined using the bicinchoninic acid (BCA) protein assay reagent (Thermo Scientific, Waltham, MA, USA). Equivalent amounts of protein were separated by SDS–PAGE on precast Bolt 4–12% Bis-Tris gel (Invitrogen, Carlsbad, CA, USA). Proteins were then transferred from gel to nitrocellulose with a Trans-Blot Turbo transfer system (Biorad, Hercules, CA, USA), probed with goat anti-rabbit IgG (H+L) secondary antibody, HRP conjugate (Invitrogen) or goat anti-mouse IgG (H+L) secondary antibody, HRP conjugate (Jackson ImmunoResearch Inc., Langcaster, PA, USA), and detected using enhanced chemiluminescence technique (Western Lightning Plus-ECL, Enhanced Chemiluminescence Substrate; Perkin Elmer, catalog # NEL105001EA, Waltham, MA, USA).
(In western blotting, separated proteins are transferred to a membrane and probed.)

For series [3], the system named is T2, BRAF^V600E. Kind of series: Western blot, BRAF^V600E degradation in Colo205. Format: cell-based. To be noted: for BRAF^V600E degradation: Colo205, 24 h, 100–500 nM; for BRAF^V600E degradation at higher concentration: Colo205, up to 10 µM (Figure S4). How it is done:
as §5, §6

A further series has as its system Colo205 cell line. As to the kind of experiment: Antiproliferative activity, CellTiter-Glo, Colo205. Format: cell-based. To be noted: Homo sapiens, COLO 205; Colo205, 72 h (Figure 6b); read-out: Antiproliferative activity IC50 (nM ± SEM). How it is done:
as §1, §2

Series [4] deals with phosphorylation of MEK and ERK. As to the kind of experiment: Western blot, BRAF signaling in A375. Format: cell-based. To be noted: A375, 24 h incubation. How it is done:
as §5
(§7) To measure the capability of our compounds to interfere with BRAF pathway, pre-treated A375 and Colo205 cells were lysed. […] The total protein amount was determined using the bicinchoninic acid (BCA) protein assay reagent (Thermo Scientific, Waltham, MA, USA). […] Proteins were then transferred from gel to nitrocellulose with a Trans-Blot Turbo transfer system (Biorad, Hercules, CA, USA), probed with goat anti-rabbit IgG (H+L) secondary antibody, HRP conjugate (Invitrogen) or goat anti-mouse IgG (H+L) secondary antibody, HRP conjugate (Jackson ImmunoResearch Inc., Langcaster, PA, USA), and detected using enhanced chemiluminescence technique (Western Lightning Plus-ECL, Enhanced Chemiluminescence Substrate; Perkin Elmer, catalog # NEL105001EA, Waltham, MA, USA).

Series [5] concerns phosphorylation of MEK and ERK. Kind of series: Western blot, BRAF signaling in Colo205. To be noted: Colo205, 24 h incubation. It counts as cell-based. As to the method: as §5, §7
The mark [6] stands for this setting: first screening (Table 1), read-out: Antiproliferative Activity IC50 ± SEM.
The mark [7] stands for this setting: second set of experiments (Figure 6a), read-out: Antiproliferative activity IC50 (nM ± SEM).

Where two headings read alike, the source gives them in different places.

As a reminder, the IC50 is the concentration at which inhibition is half-maximal. One may read the half-life as how long it takes for the measured level to halve. A low value points to rapid decline.

T1 sequence (P15056 whole entry V600E): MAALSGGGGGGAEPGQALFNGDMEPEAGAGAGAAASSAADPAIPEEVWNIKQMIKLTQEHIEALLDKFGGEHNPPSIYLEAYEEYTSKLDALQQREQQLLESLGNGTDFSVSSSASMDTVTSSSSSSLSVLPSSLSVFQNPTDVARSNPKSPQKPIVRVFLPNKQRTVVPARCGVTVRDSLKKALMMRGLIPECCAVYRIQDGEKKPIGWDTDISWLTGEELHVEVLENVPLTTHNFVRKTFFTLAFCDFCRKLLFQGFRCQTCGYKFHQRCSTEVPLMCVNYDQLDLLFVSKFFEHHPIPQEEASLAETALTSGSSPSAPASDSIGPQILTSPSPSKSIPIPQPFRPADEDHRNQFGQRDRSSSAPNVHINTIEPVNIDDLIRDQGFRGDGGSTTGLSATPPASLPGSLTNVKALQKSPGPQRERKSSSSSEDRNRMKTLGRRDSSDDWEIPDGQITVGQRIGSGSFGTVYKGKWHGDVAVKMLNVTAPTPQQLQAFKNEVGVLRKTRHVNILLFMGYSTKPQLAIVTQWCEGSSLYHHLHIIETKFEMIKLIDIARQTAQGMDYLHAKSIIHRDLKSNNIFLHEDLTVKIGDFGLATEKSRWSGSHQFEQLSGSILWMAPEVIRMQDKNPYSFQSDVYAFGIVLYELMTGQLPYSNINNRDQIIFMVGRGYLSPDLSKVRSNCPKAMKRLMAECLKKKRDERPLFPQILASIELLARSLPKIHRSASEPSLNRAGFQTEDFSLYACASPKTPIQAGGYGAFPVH

`CC(C)n1cc(-c2ccnc(NC[C@H](C)NC(=O)CCOCCOCCOCCNc3cccc4c3C(=O)N(C3CCC(=O)NC3=O)C4=O)n2)c(-c2cc(Cl)cc(NS(C)(=O)=O)c2F)n1` (stereo partly drawn) [Compound 8, N-((S)-1-((4-(3-(5-chloro-2-fluoro-3-(methylsulfonamido)phenyl)-1-isopropyl-1H-pyrazol-4-yl)pyrimidin-2-yl)amino)propan-2-yl)-3-(2-(2-(2-((2-(2,6-dioxopiperidin-3-yl)-1,3-dioxoisoindolin-4-yl)amino)ethoxy)ethoxy)ethoxy)propanamide]: the half-inhibitory concentration (IC50) in the series on A375 melanoma cell line (setting [6]) came to 1760 ± 287 nM; at B-RAF (V600E), 57 ± 7 nM. Further, the cell permeability result with Colo205 cells is “ability to reach the cytosolic compartment”. Besides, the half-life at 100 μM is 24 h in “Stability in human serum” and 21 h in series [1].

Take `CC(C)n1cc(-c2ccnc(NC[C@H](C)NC(=O)CCOCCOCCn3cc(CNc4cccc5c4C(=O)N(C4CCC(=O)NC4=O)C5=O)nn3)n2)c(-c2cc(Cl)cc(NS(C)(=O)=O)c2F)n1` (stereo partly drawn) [Compound 11, N-((S)-1-((4-(3-(5-chloro-2-fluoro-3-(methylsulfonamido)phenyl)-1-isopropyl-1H-pyrazol-4-yl)pyrimidin-2-yl)amino)propan-2-yl)-3-(2-(2-(4-(((2-(2,6-dioxopiperidin-3-yl)-1,3-dioxoisoindolin-4-yl)amino)methyl)-1H-1,2,3-triazol-1-yl)ethoxy)ethoxy)propanamide]: the IC50 in the series with A375 melanoma cell line (setting [6]) was 389 ± 15.1 nM; with A375 melanoma cell line (setting [7]), 417 ± 33 nM; in the series on Colo205 cell line, 104 ± 20 nM; at B-RAF (V600E) it was 43 ± 16 nM. In addition, the “BRAF^V600E degradation” value in the series with BRAF^V600E [2] and in the series with BRAF^V600E [3] was “not able to induce BRAF^V600E degradation” in each case. Further, the “BRAF^V600E degradation at higher concentration” value in the series with BRAF^V600E [2] and in the series on BRAF^V600E [3] was “no degradation of the target protein” throughout. Besides, the “phosphorylation of MEK and ERK” value in series [4] was “able to decrease phosphorylation of MEK and ERK”; in series [5] it was “able to decrease phosphorylation of MEK and ERK”.

With `CC(C)n1cc(-c2ccnc(NC[C@H](C)NC(=O)CCOCCOCCOCCOCCOCCNc3cccc4c3C(=O)N(C3CCC(=O)NC3=O)C4=O)n2)c(-c2cc(Cl)cc(NS(C)(=O)=O)c2F)n1` (stereo partly drawn) [Compound 10, N-((S)-1-((4-(3-(5-chloro-2-fluoro-3-(methylsulfonamido)phenyl)-1-isopropyl-1H-pyrazol-4-yl)pyrimidin-2-yl)amino)propan-2-yl)-1-((2-(2,6-dioxopiperidin-3-yl)-1,3-dioxoisoindolin-4-yl)amino)-3,6,9,12,15-pentaoxaoctadecan-18-amide], the IC50 in the series with A375 melanoma cell line (setting [6]) stood at 132 ± 1.95 nM; in the series on A375 melanoma cell line (setting [7]) it was 194 ± 36 nM; in the series with Colo205 cell line it was 31 ± 10 nM; on B-RAF (V600E) it was 75 ± 17 nM. Moreover, the “BRAF^V600E degradation” value with BRAF^V600E [2] and with BRAF^V600E [3] was “not able to induce BRAF^V600E degradation” each time. In addition, the “BRAF^V600E degradation at higher concentration” value with BRAF^V600E [2] and with BRAF^V600E [3] was “no degradation of the target protein” in each case. Further, the “phosphorylation of MEK and ERK” value in series [4] was “able to decrease phosphorylation of MEK and ERK”; in [5], “able to decrease phosphorylation of MEK and ERK”. Moreover, the figures for the half-life at 100 μM (in “Stability in human serum”; in [1]) were 23 h and 19 h, respectively.

These data come from PMC9736157 (Molecules, 2022).
